Measured values taken from patent US11739122B2, “Glycopeptide antibiotic compounds, methods for producing the same, and uses thereof” (Academia Sinica, priority 2019, dated 2023).
Values after ≈ are worked out from the molar mass of the structure shown. Values joined by “and” are separate entries in the source; they are usually repeats but may differ in a detail not shown here. Equal entries are not always repeated. Where two headings read alike, the source gives them in different places.

How the values were obtained:
MRSA ATCC BAA-39 = test: MIC, broth microdilution; assay type: cell-based, Staphylococcus aureus
Experimental: (§1) Determination of Minimal Inhibitory Concentration (MIC) for Vancomycin, Teicoplanin and Tei-Analogs Versus Selected Strains
(§2) MICs were determined by the broth microdilution method. Specifically, 12 Colonies of the test strain were picked up from 18-24 hour agar cultures and freshly inoculated into broth mediums until reaching the turbidity of a 0.5 McFarland standard. The broth culture was adjusted with broth medium to approximately 1×10^8 CFUmL^−1. […] The plates were incubated in 37° C. for 18-24 hours and monitored for the wells of the positive control, where cells grew, and the wells of the negative control, where wells should not grow. The MIC value was determined for the concentration of a test compound, at which there was no visible growth in the well.

MRSA ATCC 700789 VRSA = test: MIC, broth microdilution; assay type: cell-based, Staphylococcus aureus
Experimental: as §1, §2

MRSA ATCC 43300 = test: MIC, broth microdilution; assay type: cell-based, Staphylococcus aureus
Experimental: as §1, §2

MRSA ATCC 700698 hVISA = test: MIC, broth microdilution; assay type: cell-based, Staphylococcus aureus
Experimental: as §1, §2

MRSA ATCC BAA-38 = test: MIC, broth microdilution; assay type: cell-based, Staphylococcus aureus
Experimental: as §1, §2

MRSA ATCC BAA-44 = test: MIC, broth microdilution; assay type: cell-based, Staphylococcus aureus
Experimental: as §1, §2

MRSA ATCC 700787 VRSA = test: MIC, broth microdilution; assay type: cell-based, Staphylococcus aureus
Experimental: as §1, §2

S. aureus ATCC 29213 = test: MIC, broth microdilution; assay type: cell-based, Staphylococcus aureus
Experimental: as §1, §2

E. faecalis ATCC 29302 = test: MIC, broth microdilution; assay type: cell-based
Experimental: as §1, §2

VRE ATCC 700425 (vanC) = test: MIC, broth microdilution; assay type: cell-based, enterococci
Experimental: as §1, §2

VRE ATCC 700802 (vanB) = test: MIC, broth microdilution; assay type: cell-based, enterococci
Experimental: as §1, §2

VRE ATCC 700221 (vanA) = test: MIC, broth microdilution; assay type: cell-based, enterococci
Experimental: as §1, §2

A. baumannii ATCC 19606 [1] = test: In vivo efficacy, intranasal A. baumannii infection; parameters: species or system mice; details: BAL fluid, 24 hours post-inoculation; 24 and kanamycin 30, amikacin 15 mgkg^−1
Experimental: In Vivo Efficacy of r6,N-Acyl-Glc Tei Analogs
Female C57BL/6 mice (6 weeks of age; about 16-19 g, 3-5 mice per group) were intraperitoneally inoculated with 300 μL of MRSA ATCC 700787 suspension (about 10^7 CFUmL^−1). For intranasal A. baumannii (ATCC 19606) inoculation, mice were anesthetized, and inoculated intranasally with about 10^7-10^8 CFUmL^−1 A. baumannii in 50 μL of PBS. Treatments were started 1 hour after the bacterial challenge. The dose administration to mice was set as follows: teicoplanin (1) or r6,C8-Tei analog (14) 20 mgkg^−1 was intraperitoneally injected to MRSA-infected mice; amikacin (15 mgkg^−1), teicoplanin (1) (30 mgkg^−1), kanamycin (30 mgkg^−1) or r1,Me2-r6,guanidino-C8 analog (24) (30 mgkg^−1) was intraperitoneally injected to AB-infected mice. To assess bacteraemia, the test animals were sacrificed to collect 1 mL of peritoneal fluid (PF) for MRSA counting or the lungs were lavaged to collect 0.6 mL bronchoalveolar lavage (BAL) fluid for A. baumannii counting.
For AB (ATCC 19606), female C57BL/6 mice were first anesthetized by intraperitoneal injection of zoletil and then intranasally inoculated with 50 μL of bacteria in a PBS solution (about 10^7-10^8 CFUmL^−1). The treatment started 1 hour post-infection with a single dose of compound 24 (30 mgkg^−1), compound 1 (30 mgkg^−1), amikacin (15 mgkg^−1), or kanamycin (30 mgkg^−1), where saline/compound 1 and amikacin/kanamycin respectively served as negative and positive controls. To assess the density of bacteraemia, the lungs of mice were lavaged to collect 0.6 mL bronchoalveolar lavage (BAL) fluid from each mouse at 24 hours post-inoculation. For saline/compound 1 treated controls, the bacterial load was counted (about 4 log CFUmL^−1, FIG. 4B), where the bacterial load was reduced by 0.5 or 1 log CFUmL^−1 with the treatment of amikacin/kanamycin or compound 24, respectively.

MRSA ATCC 700787 = test: Thin-section TEM, cell wall morphology; assay type: cell-based, Staphylococcus aureus
Experimental: Thin-Section Transmission Electron Microscopy (TEM)
An overnight cultured MRSA ATCC 700787, VRE ATCC 700221 or A. baumannii ATCC 19606 was individually sub-cultured into a fresh medium. Bacteria at the exponential phase were treated with a given test compound at a concentration of 4×MIC for 1-4 hour at 37° C. and followed by wash and resuspension in PBS. Bacteria cells for the TEM analysis were prepared as follows: Cells were fixed with 2.5% glutaraldehyde for 30 minutes. After the fixation, cells were washed twice with PBS and fixed with 1% osmium tetraoxide for another 30 minutes. All the buffer was removed with distilled water. The cells were then stained with 1% uranyl acetate and dehydrated with a graded ethanol solution. Cells were embedded in resin. Finally, each sample was cut into thin slices of approximately 90 nm with a glass knife and stained with uranyl acetate. The images of bacterial morphological were recorded.
The cell wall/membrane apparently is the targets, while the extent of damage depends on what compound imposes on the strain. […] Cell wall thickening has been a common phenotype in clinical MRSA isolates, which may well be a phenotypic determinant for VRSA. The systemic cell-wall damage may account for the cell-wall biosynthesis crippled all over the cell surface in cell-wall thickening strains, thus leading cells to lysis as a result of the osmotic pressure of cytoplasm.

A. baumannii ATCC 19606 [2] = test: MIC, broth microdilution; assay type: cell-based, Acinetobacter baumannii; details: Acinetobacter baumannii
Experimental: as §1, §2

SMILES: N[C@H]1C(=O)N[C@@H]2Cc3ccc(c(Cl)c3)Oc3cc4cc(c3O)Oc3ccc(cc3Cl)[C@@H](O[C@@H]3O[C@H](CO)[C@@H](O)[C@H](O)[C@H]3NC(=O)CCCCCc3ccccc3)[C@@H]3NC(=O)[C@H](NC(=O)[C@@H]4NC(=O)[C@@H](NC2=O)c2cc(O)cc(c2)Oc2cc1ccc2O)c1ccc(O)c(c1)-c1c(O)cc(O)cc1[C@@H](C(=O)O)NC3=O [Compound 16]
- MIC (MRSA ATCC BAA-39; MRSA ATCC BAA-39): 0.063 mg/L (≈ 0.0411 µM)
- MIC (MRSA ATCC 700789 VRSA; MRSA ATCC 700789 VRSA): 0.5 mg/L (≈ 0.326 µM)
- MIC (MRSA ATCC 43300; MRSA ATCC 43300): 0.063 mg/L (≈ 0.0411 µM)
- MIC (MRSA ATCC 700698 hVISA; MRSA ATCC 700698 hVISA): 0.016 mg/L (≈ 0.0104 µM)
- MIC (MRSA ATCC BAA-38; MRSA ATCC BAA-38): 0.031 mg/L (≈ 0.0202 µM)
- MIC (MRSA ATCC BAA-44; MRSA ATCC BAA-44): 0.016 mg/L (≈ 0.0104 µM)
- MIC (MRSA ATCC 700787 VRSA; MRSA ATCC 700787 VRSA): 0.125 mg/L (≈ 0.0815 µM)
- MIC (S. aureus ATCC 29213; SA ATCC 29213): 0.125 mg/L (≈ 0.0815 µM)
- MIC (E. faecalis ATCC 29302; EF ATCC 29302): 0.25 mg/L (≈ 0.163 µM)
- MIC (VRE ATCC 700425 (vanC); VRE ATCC 700425 (vanC)): 1 mg/L (≈ 0.652 µM)
- MIC (VRE ATCC 700802 (vanB); VRE ATCC 700802 (vanB)): 0.25 mg/L (≈ 0.163 µM)
- MIC (VRE ATCC 700221 (vanA); VRE ATCC 700221 (vanA)): >16 mg/L

SMILES: NCC[C@H](O)C(=O)N[C@@H]1C[C@H](N)[C@@H](O[C@H]2O[C@H](CN)[C@@H](O)[C@H](O)[C@H]2O)[C@H](O)[C@H]1O[C@H]1O[C@H](CO)[C@@H](O)[C@H](N)[C@H]1O [amikacin]
- bacterial load reduced by (A. baumannii ATCC 19606 [1]): 0.5 log CFUmL^−1

SMILES: CN[C@H](CC(C)C)C(=O)N[C@H]1C(=O)N[C@@H](CC(N)=O)C(=O)N[C@H]2C(=O)N[C@H]3C(=O)N[C@H](C(=O)N[C@H](C(=O)O)c4cc(O)cc(O)c4-c4cc3ccc4O)[C@H](O)c3ccc(c(Cl)c3)Oc3cc2cc(c3O[C@@H]2O[C@H](CO)[C@@H](O)[C@H](O)[C@H]2O[C@H]2C[C@](C)(N)[C@H](O)[C@H](C)O2)Oc2ccc(cc2Cl)[C@H]1O [Compound 2, vancomycin, reference compound]
- MIC (MRSA ATCC BAA-39; Staphylococcus aureus): 1 mg/L (≈ 0.69 µM)
- MIC (MRSA ATCC 700789 VRSA; Staphylococcus aureus): 16 mg/L (≈ 11 µM)
- MIC (MRSA ATCC 43300; Staphylococcus aureus): 1 mg/L (≈ 0.69 µM)
- MIC (MRSA ATCC 700698 hVISA; Staphylococcus aureus): 4 mg/L (≈ 2.76 µM)
- MIC (MRSA ATCC BAA-38; Staphylococcus aureus): 1 mg/L (≈ 0.69 µM)
- MIC (MRSA ATCC BAA-44; Staphylococcus aureus): 2 mg/L (≈ 1.38 µM)
- MIC (MRSA ATCC 700787 VRSA; Staphylococcus aureus): 16 mg/L (≈ 11 µM)
- MIC (S. aureus ATCC 29213; Staphylococcus aureus, ATCC29213): 1 mg/L (≈ 0.69 µM)
- MIC (E. faecalis ATCC 29302; Enterococcus faecalis, ATCC29302): 2 mg/L (≈ 1.38 µM)
- cell wall morphology by TEM (MRSA ATCC 700787): floppy
- MIC (VRE ATCC 700425 (vanC); Enterococcus): 16 mg/L (≈ 11 µM)
- MIC (VRE ATCC 700802 (vanB); Enterococcus): 64 mg/L (≈ 44.2 µM)
- MIC (VRE ATCC 700221 (vanA); Enterococcus): > 128 mg/L
- MIC (A. baumannii ATCC 19606 [2]; ATCC19606): 200 µM and 297 µg/mL
- MIC (A. baumannii ATCC 19606 [2]; ATCC19606, read-out: MIC on AB): > 190 mg/L

SMILES: CCCCCCCC(=O)NC1C(OC2c3ccc(c(Cl)c3)Oc3cc4cc(c3O)Oc3ccc(cc3Cl)CC3NC(=O)C(N)c5ccc(O)c(c5)Oc5cc(O)cc(c5)C(NC3=O)C(=O)NC4C(=O)NC3C(=O)NC2C(=O)NC(C(=O)O)c2cc(O)cc(OC4OC(CO)C(O)C(O)C4O)c2-c2cc3ccc2O)OC(CO)C(O)C1O (stereo not shown) [Compound 26]
- MIC (MRSA ATCC BAA-39; MRSA ATCC BAA-39): 0.016 mg/L (≈ 0.00971 µM)
- MIC (MRSA ATCC 700789 VRSA; MRSA ATCC 700789 VRSA): 0.5 mg/L (≈ 0.303 µM)
- MIC (MRSA ATCC 43300; MRSA ATCC 43300): 0.125 mg/L (≈ 0.0758 µM)
- MIC (MRSA ATCC 700698 hVISA; MRSA ATCC 700698 hVISA): 0.031 mg/L (≈ 0.0188 µM)
- MIC (MRSA ATCC BAA-38; MRSA ATCC BAA-38): 0.125 mg/L (≈ 0.0758 µM)
- MIC (MRSA ATCC BAA-44; MRSA ATCC BAA-44): 0.016 mg/L (≈ 0.00971 µM)
- MIC (MRSA ATCC 700787 VRSA; MRSA ATCC 700787 VRSA): 0.5 mg/L (≈ 0.303 µM)
- MIC (S. aureus ATCC 29213; SA ATCC 29213): 0.016 mg/L (≈ 0.00971 µM)
- MIC (E. faecalis ATCC 29302; EF ATCC 29302): 0.5 mg/L (≈ 0.303 µM)
- MIC (VRE ATCC 700425 (vanC); VRE ATCC 700425 (vanC)): 1 mg/L (≈ 0.607 µM)
- MIC (VRE ATCC 700802 (vanB); VRE ATCC 700802 (vanB)): 1 mg/L (≈ 0.607 µM)
- MIC (VRE ATCC 700221 (vanA); VRE ATCC 700221 (vanA)): >16 mg/L
